Measurements from US8008505B2, “Indazole or 4,5,6,7-tetrahydro-indazole derivatives” (Hoffmann-La Roche Inc., priority 2008, dated 2011).

Target: T1, FXR ligand binding domain (Homo sapiens, UniProt Q96RI1)
T1 sequence (Q96RI1 1-486): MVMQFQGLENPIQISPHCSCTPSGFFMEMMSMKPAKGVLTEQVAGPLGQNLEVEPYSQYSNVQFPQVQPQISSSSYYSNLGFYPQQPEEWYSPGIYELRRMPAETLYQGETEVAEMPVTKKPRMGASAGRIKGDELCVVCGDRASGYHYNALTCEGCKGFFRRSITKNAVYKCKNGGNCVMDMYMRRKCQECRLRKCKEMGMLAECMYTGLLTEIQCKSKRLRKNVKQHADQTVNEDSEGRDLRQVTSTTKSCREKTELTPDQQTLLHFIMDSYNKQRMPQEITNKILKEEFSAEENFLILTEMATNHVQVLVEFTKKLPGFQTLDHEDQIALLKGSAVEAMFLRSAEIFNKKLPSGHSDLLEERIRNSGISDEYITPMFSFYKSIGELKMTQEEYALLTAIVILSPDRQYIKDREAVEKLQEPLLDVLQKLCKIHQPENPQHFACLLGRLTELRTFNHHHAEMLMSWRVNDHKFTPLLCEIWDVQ
Experiment: Radioligand binding assay (radioligand displacement, scintillation proximity)
Details: GST-FXR LBD fusion protein on SPA beads, radioligand 2,N-dicyclohexyl-2-[2-(2,4 dimethoxy-phenyl)-benzoimidazol-1-yl]-acetamide, RT 30 minutes
Method: The following tests were carried out in order to determine the activity of the compounds of formula I. Background information on the binding assay can be found in: Nichols J S et al. “Development of a scintillation proximity assay for peroxisome proliferator-activated receptor gamma ligand binding domain”, (1998) Anal. Biochem. 257: 112-119.
Bacterial and mammalian expression vectors were constructed to produce glutathione-s-transferase (GST) and Gal4 DNA binding domain (GAL) proteins fused to the ligand binding domain (LBD) of human FXR (aa 193-473). To accomplish this, the portions of the sequences encoding the FXR LBD were amplified by polymerase chain reaction (PCR) from a full-length clone by PCR and then subcloned into the plasmid vectors. The final clone was verified by DNA sequence analysis.
The induction, expression, and subsequent purification of GST-LBD fusion protein was performed in E. coli strain BL21(pLysS) cells by standard methods (Current Protocols in Molecular Biology, Wiley Press, ed. Ausubel et al).
Radioligand Binding Assay
Binding of test substances to the FXR ligand binding domain was assessed in a radioligand displacement assay. The assay was performed in a buffer consisting of 50 mM Hepes, pH 7.4, 10 mM NaCl, 5 mM MgCl2. For each reaction well in a 96-well plate, 40 nM of GST-FXR LBD fusion protein was bound to 10 μg glutathione ytrium silicate SPA beads (Pharmacia Amersham) in a final volume of 50 μl by shaking. A radioligand (eg. 40 nM) of 2,N-dicyclohexyl-2-[2-(2,4 dimethoxy-phenyl)-benzoimidazol-1-yl]-acetamide) was added, and the reaction incubated at RT for 30 minutes in the presence of test compounds followed by scintillation proximity counting. All binding assays were performed in 96-well plates and the amount of bound ligand was measured on a Packard TopCount using OptiPlates (Packard). Dose response curves were performed within a range of concentration from 6×10^−9 M to 2.5×10^−5 M.

| IC50 [nM] | SMILES |
| --- | --- |
| 2830 | O=C(Nc1ccc(F)cc1F)C(c1c2c(nn1-c1ccc(Cl)cc1)CCCC2)C1CCCCC1 (racemic) [Example 14, [rac]-2-[2-(4-Chloro-phenyl)-4,5,6,7-tetrahydro-2H-indazol-3-yl]-2-cyclohexyl-N-(2,4-difluoro-phenyl)-acetamide] |
| 223 | O=C(Nc1ccc(OC2(C(=O)O)CC2)cc1F)C(c1c2c(nn1-c1ccc(Cl)cc1)CCCC2)C1CCCCC1 (racemic) [Example 16, [rac]-1-(4-{2-[2-(4-Chloro-phenyl)-4,5,6,7-tetrahydro-2H-indazol-3-yl]-2-cyclohexyl-acetylamino}-3-fluoro-phenoxy)-cyclopropanecarboxylic acid] |
| 7540 | COC(=O)c1ccc(COC(c2c3ccccc3nn2-c2ccc(Cl)cc2)C2CCCCC2)cc1 (racemic) [Example 17] |
| 360 | O=C(O)c1ccc(COC(c2c3ccccc3nn2-c2ccc(Cl)cc2)C2CCCCC2)cc1 (racemic) [Example 18] |
| 330 | O=C(O)c1ccc(NC(=O)C(c2c3c(nn2-c2ccc(Cl)cc2)CCCC3)C2CCCCC2)c(C(F)(F)F)c1 (racemic) [Example 20, [rac]-4-{2-[2-(4-Chloro-phenyl)-4,5,6,7-tetrahydro-2H-indazol-3-yl]-2-cyclohexyl-acetylamino}-3-trifluoromethyl-benzoic acid] |
| 680 | O=C(NC1CCCCC1)C(c1c2cc(F)c(F)cc2nn1-c1ccc(Cl)cc1)C1CCCCC1 (racemic) [Example 24, [rac]-2-[2-(4-Chloro-phenyl)-5,6-difluoro-2H-indazol-3-yl]-2,N-dicyclohexyl-acetamide] |
| 570 | CC(C)(Oc1ccc(NC(=O)C(c2c3cc(F)c(F)cc3nn2-c2ccc(Cl)cc2)C2CCCCC2)c(F)c1)C(=O)O (racemic) [Example 26, [rac]-2-(4-{2-[2-(4-Chloro-phenyl)-5,6-difluoro-2H-indazol-3-yl]-2-cyclohexyl-acetylamino}-3-fluoro-phenoxy)-2-methyl-propionic acid] |
| 245 | O=C(O)c1ccc(COC(c2c3cc(F)c(F)cc3nn2-c2ccc(Cl)cc2)C2CCCCC2)cc1 (racemic) [Example 27, [rac]-4-{[2-(4-Chloro-phenyl)-5,6-difluoro-2H-indazol-3-yl]-cyclohexyl-methoxymethyl}-benzoic acid] |
| 510 | O=C(O)c1ccc(COC(c2c3c(nn2-c2ccc(Cl)cc2)CCCC3)C2CCCCC2)cc1 (racemic) [Example 28, [rac]-4-{[2-(4-Chloro-phenyl)-4,5,6,7-tetrahydro-2H-indazol-3-yl]-cyclohexyl-methoxymethyl}-benzoic acid] |
| 26 | Cc1cc(C(=O)O)cc(C)c1OCC(c1c2ccccc2nn1-c1ccc(Cl)cc1)C1CCCCC1 (racemic) [Example 29, [rac]-4-{2-[2-(4-Chloro-phenyl)-2H-indazol-3-yl]-2-cyclohexyl-ethoxy}-3,5-dimethyl-benzoic acid] |
| 100 | Fc1cc(-c2nnn[nH]2)ccc1OCC(c1c2ccccc2nn1-c1ccc(Cl)cc1)C1CCCCC1 (racemic) [Example 31, [rac]-2-(4-Chloro-phenyl)-3-{1-cyclohexyl-2-[2-fluoro-4-(2H-tetrazol-5-yl)-phenoxy]-ethyl}-2H-indazole] |
| 1700 | O=C(O)c1ccc(NC(=O)C(c2c3cc(F)c(F)cc3nn2-c2ccc(Cl)cc2)C2CCCCC2)c(F)c1 (racemic) [Example 32, [rac]-4-{2-[2-(4-Chloro-phenyl)-5,6-difluoro-2H-indazol-3-yl]-2-cyclohexyl-acetylamino}-3-fluoro-benzoic acid] |
| 2130 | Cc1cc(C(=O)O)cc(C)c1OC(c1c2cc(F)c(F)cc2nn1-c1ccc(Cl)cc1)C1CCCCC1 (racemic) [Example 34, [rac]-4-{[2-(4-Chloro-phenyl)-5,6-difluoro-2H-indazol-3-yl]-cyclohexyl-methoxy}-3,5-dimethyl-benzoic acid] |
| 870 | N#Cc1ccc(OC(c2c3cc(F)c(F)cc3nn2-c2ccc(Cl)cc2)C2CCCCC2)c(F)c1 (racemic) [Example 35, [rac]-4-{[2-(4-Chloro-phenyl)-5,6-difluoro-2H-indazol-3-yl]-cyclohexyl-methoxy}-3-fluoro-benzonitrile] |
| 400 | Fc1cc2nn(-c3ccc(Cl)cc3)c(C(COc3ccc(-c4nnn[nH]4)cc3F)C3CCCCC3)c2cc1F (racemic) [Example 36, [rac]-2-(4-Chloro-phenyl)-3-{1-cyclohexyl-2-[2-fluoro-4-(2H-tetrazol-5-yl)-phenoxy]-ethyl}-5,6-difluoro-2H-indazole] |
| 3480 | N#Cc1ccc(OCC(c2c3c(nn2-c2ccc(Cl)cc2)CCCC3)C2CCCCC2)c(F)c1 (racemic) [Example 37, [rac]-4-{2-[2-(4-Chloro-phenyl)-4,5,6,7-tetrahydro-2H-indazol-3-yl]-2-cyclohexyl-ethoxy}-3-fluoro-benzonitrile] |
| 109 | Fc1cc(-c2nnn[nH]2)ccc1OCC(c1c2c(nn1-c1ccc(Cl)cc1)CCCC2)C1CCCCC1 (racemic) [Example 38, [rac]-2-(4-Chloro-phenyl)-3-{1-cyclohexyl-2-[2-fluoro-4-(1H-tetrazol-5-yl)-phenoxy]-ethyl}-4,5,6,7-tetrahydro-2H-indazole] |
| 360 | Cc1cc(C(=O)O)cc(C)c1OCC(c1c2c(nn1-c1ccc(Cl)cc1)CCCC2)C1CCCCC1 (racemic) [Example 40, [rac]-4-{2-[2-(4-Chloro-phenyl)-4,5,6,7-tetrahydro-2H-indazol-3-yl]-2-cyclohexyl-ethoxy}-3,5-dimethyl-benzoic acid] |
| 7130 | N#Cc1ccc(COC(c2c3cc(F)c(F)cc3nn2-c2ccc(Cl)cc2)C2CCCCC2)c(F)c1 (racemic) [Example 41, [rac]-4-{[2-(4-Chloro-phenyl)-5,6-difluoro-2H-indazol-3-yl]-cyclohexyl-methoxymethyl}-3-fluoro-benzonitrile] |
| 14 | Fc1cc2nn(-c3ccc(Cl)cc3)c(C(OCc3ccc(-c4nnn[nH]4)cc3F)C3CCCCC3)c2cc1F (racemic) [Example 42, [rac]-2-(4-Chloro-phenyl)-3-{cyclohexyl-[2-fluoro-4-(2H-tetrazol-5-yl)-benzyloxy]-methyl}-5,6-difluoro-2H-indazole] |
| 29 | Cc1cc(C(=O)O)cc(C)c1OCC(c1c2cc(F)c(F)cc2nn1-c1ccc(Cl)cc1)C1CCCCC1 (racemic) [Example 43, [rac]-4-{2-[2-[4-Chloro-phenyl]-5,6-difluoro-2H-indazol-3-yl]-2-cyclohexyl-ethoxy}-3,5-dimethyl-benzoic acid] |
| 5620 | N#Cc1ccc(COC(c2c3c(nn2-c2ccc(Cl)cc2)CCCC3)C2CCCCC2)cc1 (racemic) [Example 44, [rac]-4-{[2-(4-Chloro-phenyl)-4,5,6,7-tetrahydro-2H-indazol-3-yl]-cyclohexyl-methoxymethyl}-benzonitrile] |
| 2 | Clc1ccc(-n2nc3ccccc3c2C(OCc2ccc(-c3nnn[nH]3)cc2)C2CCCCC2)cc1 (racemic) [Example 47, [rac]-2-(4-Chloro-phenyl)-3-{cyclohexyl-[4-(2H-tetrazol-5-yl)-benzyloxy]-methyl}-2H-indazole] |
| 4 | Fc1cc2nn(-c3ccc(Cl)cc3)c(C(OCc3ccc(-c4nnn[nH]4)cc3)C3CCCCC3)c2cc1F (racemic) [Example 49, [rac]-2-(4-Chloro-phenyl)-3-{cyclohexyl-[4-(2H-tetrazol-5-yl)-benzyloxy]-methyl}-5,6-difluoro-2H-indazole] |
